Laboratory results: patent publication US7932382B2, “Conformationally constrained Smac mimetics and the uses thereof” (The Regents of the University of Michigan, priority 2005, dated 2011)
Where a SMILES comes first, the peptide text is derived from it. [ ]: non-standard residue; d: D form. The star is where a group is joined. 6FAM = O=C1OC2(c3ccc(O)cc3Oc3cc(O)ccc32)c2cc(C(=O)*)ccc21; Abu = CC[C@H](N)C(=O)O

What was measured:
PC-3 cells = assay: Apoptosis by Annexin V-FITC staining in PC-3 cells; format: cell-based, human; conditions: for potentiation of the activity of CDDP in inducing apoptosis: PC-3 cells
Description: PC-3 cells were treated with CDDP, Smac peptides and mimetics alone or in combination for 42 hours and apoptosis was analyzed by Annexin V-FITC staining. […] Combination of 25 μM CDDP and 10 μM or 25 μM SH-97 induced 29.3%±1.9% and 35.8%±0.4% apoptosis over control cells, respectively (FIG. 10A).
Similar experiments were performed with SH-102 (Table 5). PC-3 cells in 6-well plates were treated with SH-102 and CDDP, alone or on combination, for 42 hours. Cells were collected and stained with Annexin V-FITC and propidium iodide. The fluorescence of Annexin V-FITC and propidium iodide of individual cells was analyzed by flow cytometry. […] Combination of 25 μM CDDP and 10 μM SH-102 induced 32% apoptosis over control cells (FIG. 11).
The same experiment was performed using TAXOTERE (docetaxel), another cancer chemotherapeutic drug. PC-3 cells in 6-well plates were treated with SH-102 and TAXOTERE, alone or in combination, for 42 hours. Cells were collected and stained with Annexin V-FITC and propidium iodide. The fluorescence of Annexin V-FITC and propidium iodide of individual cells was analyzed by flow cytometry. […] Combination of 10 μM taxotere and 10 μM SH-102 induced about 18% apoptosis over control cells (FIG. 13).

MDA-231 cells = assay: Apoptosis by Annexin V-FITC/propidium iodide flow cytometry in MDA-231 cells; format: cell-based, human; conditions: for potentiation of the activity of CDDP in inducing apoptosis: MDA-231 cells; for cells undergoing apoptosis as compared to control cells: 42 hours
Description: Similar experiments were performed using the breast cancer cell line MDA-231. MDA-231 cells in 6-well plates were treated with SH-102 and CDDP, alone or on combination, for 42 hours. Cells were collected and stained with Annexin V-FITC and propidium iodide. The fluorescence of Annexin V-FITC and propidium iodide of individual cells was analyzed by flow cytometry. 25 μM and 50 μM CDDP induced about 25% and 42% of MDA-231 cells to undergo apoptosis as compared to control cells, respectively (FIG. 14). […] Combination of 25 and 50 μM CDDP and 10 μM SH-102 induced about 35% and 75% apoptosis over control cells, respectively (FIG. 14).

[1] = tested on: MDA-435, MDA468, and T47D cells; assay: Cell growth inhibition (WST-8) in breast cancer cell lines; format: cell-based, human; conditions: all three cell lines, 5 days
Description: To test the effect of Smac mimetics by themselves in inhibition of cell growth in human cancer cells, SH-102 was administered to three different breast cancer cell lines. MDA-435, MDA468, and T47D cells were seeded in 96-well plates with increasing concentrations of SH-102, Smac8, or Smac8-C. The cells were then incubated at 37° C. with 5% CO2 for 5 days, followed by detection of cell viability with WST-8. Untreated cells were used as 100% growth. […]. […] (FIGS. 18A-18C).

[2] = molecular target: T1, human XIAP-BIR3 protein (residues 241-356) (Homo sapiens, UniProt P98170); assay: biochemical
[3] = molecular target: T1, human XIAP-BIR3 protein (residues 241-356); assay: Fluorescence polarization saturation (direct) binding of labeled Smac peptides; design: The human XIAP-BIR3 protein (residues 241-356) with a His tag; conditions: 5 nM labeled peptide titrated with 0 to 40 μM protein; read-out: Kd value (dissociation constant to XIAP-BIR3)
XIAP = XIAP (Homo sapiens, UniProt P98170); conditions: cited from earlier work
XIAP, sequence (P98170 whole entry): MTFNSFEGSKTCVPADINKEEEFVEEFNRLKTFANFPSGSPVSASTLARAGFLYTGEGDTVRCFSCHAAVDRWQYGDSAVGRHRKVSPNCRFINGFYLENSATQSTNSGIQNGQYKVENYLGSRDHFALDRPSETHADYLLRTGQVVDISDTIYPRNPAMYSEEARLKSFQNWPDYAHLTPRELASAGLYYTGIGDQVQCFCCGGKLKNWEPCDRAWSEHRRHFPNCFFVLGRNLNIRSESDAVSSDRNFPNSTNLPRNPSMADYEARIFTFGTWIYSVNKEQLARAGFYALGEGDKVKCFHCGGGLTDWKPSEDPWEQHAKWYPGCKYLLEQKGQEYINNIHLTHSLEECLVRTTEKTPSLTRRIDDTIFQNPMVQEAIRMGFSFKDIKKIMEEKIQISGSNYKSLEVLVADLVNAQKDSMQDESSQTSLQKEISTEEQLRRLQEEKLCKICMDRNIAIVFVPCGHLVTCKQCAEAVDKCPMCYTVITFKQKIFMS

T1 sequence (P98170 241-356): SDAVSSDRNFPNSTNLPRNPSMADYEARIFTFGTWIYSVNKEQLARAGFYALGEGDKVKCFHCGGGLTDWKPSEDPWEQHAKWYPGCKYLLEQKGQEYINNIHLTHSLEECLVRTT

AVPIAQKS [Smac8, Smac peptide without a carrier peptide, negative control]
potentiation of the activity of CDDP in inducing apoptosis (PC-3 cells): unable to potentiate | potentiation of the activity of CDDP in inducing apoptosis (MDA-231 cells): unable to potentiate | inhibition of cell growth (in words) [1]: essentially ineffective

[NH2][Pt]([NH2])([Cl])[Cl] [CDDP, cisplatin]
cancer cells undergoing apoptosis as compared to control cells (PC-3 cells; 50 μM CDDP alone, 42 hours): ~25% | cells undergoing apoptosis as compared to control cells (MDA-231 cells; 25 μM CDDP alone): about 25% | cells undergoing apoptosis as compared to control cells (MDA-231 cells; 50 μM CDDP alone): ~42%

CC[C@H](N)C(=O)N[C@H]1CCC[C@H]2CC[C@@H](C(=O)NC(c3ccccc3)c3ccccc3)N2C1=O [Compound 34]
apoptosis compared to untreated cancer cells (PC-3 cells; SH-102 alone up to 100 μM, 42 hours): did not induce significantly more apoptosis

CCC[C@H](N)C(=O)N[C@H]1CC[C@H]2CC[C@@H](C(=O)NCc3ccccc3)N2C1=O [SH-93]
potentiation of the activity of CDDP in inducing apoptosis (PC-3 cells): unable to potentiate | potentiation of the activity of CDDP in inducing apoptosis (MDA-231 cells): unable to potentiate

CCC(CC)CNC(=O)[C@@H]1CC[C@@H]2CC[C@H](NC(=O)[C@H](C)N)C(=O)N21 [SH-76]
Ki [2]: > 200000 nM

CC[C@H](N)C(=O)N[C@@H](CCCNC(=N)N)C(=O)N1CCC[C@H]1C(=O)N[C@@H](Cc1ccccc1)C(=O)N[C@@H](CCCCNC(=O)c1ccc2c(c1)C1(OC2=O)c2ccc(O)cc2Oc2cc(O)ccc21)C(N)=O [SM5F, AbuRPFK-FAM] (H-[Abu]RPFK(6FAM)-NH2; N-terminus and C-terminus assumed)
Kd [3]: 17.9 nM

B1: mature Smac protein: mature Smac/DIABLO protein, endogenous inhibitor of XIAP (protein, UniProt Q9NR28 22-239, looked up)
Diablo IAP-binding …: LCVPVVANFKKRCFSELIRPWHKTVTIGFGVTLCAVPIAQKSEPHSLSSEALMRRAVSLVTDSTSTFLSQTTYALIEAITEYTKAVYTLTSLYRQYTSLLGKMNSEEEDEVWQVIIGARAEMTSKHQEYLKLETTWMTAVGLSEMAAEAAYQTGADQASITARNHIQLVKLQVEEVHQLSRKAETKLAEAQIEELRQKTQEEGEERAESEQEAYLRED
Kd (XIAP): 420 nM
